Assay results: the NIST ThermoML archive (doi:10.1016/j.jct.2010.08.021)
Where “and” joins values, the source holds several entries; their conditions need not be identical. Equal entries are not always repeated.

Experiment: mn = molality of the nth substance listed, in mol/kg
Details: 101 kPa, Liquid; for speed of sound: Sing-around technique in a fixed-path interferometer; for mass density: Vibrating tube method

N.N.O=C(O)CC(O)(CC(=O)O)C(=O)O [ammonium citrate, dibasic] + O
Details	mass density	speed of sound
288.15 K, m1 = 0.0059	999.706 kg/m3	1467.4 m/s
288.15 K, m1 = 0.0071	999.822 kg/m3	1467.6 m/s
288.15 K, m1 = 0.0087	999.992 kg/m3	1467.9 m/s
288.15 K, m1 = 0.0129	1000.42 kg/m3	1468.5 m/s
288.15 K, m1 = 0.0177	1000.9 kg/m3	1469.1 m/s
288.15 K, m1 = 0.0222	1001.37 kg/m3	1469.7 m/s
288.15 K, m1 = 0.0266	1001.8 kg/m3	1470.2 m/s
288.15 K, m1 = 0.0311	1002.26 kg/m3	1470.9 m/s
288.15 K, m1 = 0.0354	1002.69 kg/m3	1471.5 m/s
288.15 K, m1 = 0.0423	1003.38 kg/m3	1472.4 m/s
288.15 K, m1 = 0.0446	1003.62 kg/m3	1472.8 m/s
288.15 K, m1 = 0.0468	1003.84 kg/m3	1473.1 m/s
288.15 K, m1 = 0.0492	1004.09 kg/m3	1473.4 m/s
288.15 K, m1 = 0.0562	1004.75 kg/m3	1474.3 m/s
288.15 K, m1 = 0.0645	1005.59 kg/m3	1475.4 m/s
288.15 K, m1 = 0.0748	1006.57 kg/m3	1476.8 m/s
288.15 K, m1 = 0.0797	1007.07 kg/m3	1477.4 m/s
288.15 K, m1 = 0.09	1008.08 kg/m3	1478.8 m/s
288.15 K, m1 = 0.5	1044.77 kg/m3 and 1044.77 kg/m3 and 1044.73 kg/m3	1529.2 m/s and 1529 m/s and 1529 m/s
288.15 K, m1 = 0.988	1082.62 kg/m3	1585.1 m/s
288.15 K, m1 = 0.997	1082.58 kg/m3	1584.9 m/s
288.15 K, m1 = 0.998	1082.63 kg/m3	1585 m/s
293.15 K, m1 = 0.0059	998.799 kg/m3	1483.5 m/s
293.15 K, m1 = 0.0071	998.916 kg/m3	1483.7 m/s
293.15 K, m1 = 0.0087	999.084 kg/m3	1483.9 m/s
293.15 K, m1 = 0.0129	999.5 kg/m3	1484.5 m/s
293.15 K, m1 = 0.0177	999.976 kg/m3	1485.1 m/s
293.15 K, m1 = 0.0222	1000.44 kg/m3	1485.7 m/s
293.15 K, m1 = 0.0266	1000.87 kg/m3	1486.2 m/s
293.15 K, m1 = 0.0311	1001.32 kg/m3	1486.8 m/s
293.15 K, m1 = 0.0354	1001.75 kg/m3	1487.4 m/s
293.15 K, m1 = 0.0423	1002.43 kg/m3	1488.3 m/s
293.15 K, m1 = 0.0446	1002.67 kg/m3	1488.7 m/s
293.15 K, m1 = 0.0468	1002.88 kg/m3	1488.9 m/s
293.15 K, m1 = 0.0492	1003.13 kg/m3	1489.3 m/s
293.15 K, m1 = 0.0562	1003.78 kg/m3	1490.1 m/s
293.15 K, m1 = 0.0645	1004.61 kg/m3	1491.2 m/s
293.15 K, m1 = 0.0748	1005.58 kg/m3	1492.5 m/s
293.15 K, m1 = 0.0797	1006.07 kg/m3	1493.1 m/s
293.15 K, m1 = 0.09	1007.07 kg/m3	1494.4 m/s
293.15 K, m1 = 0.5	1043.38 kg/m3 and 1043.38 kg/m3 and 1043.34 kg/m3	1542.8 m/s and 1542.6 m/s and 1542.7 m/s
293.15 K, m1 = 0.988	1080.92 kg/m3	1596.5 m/s
293.15 K, m1 = 0.997	1080.88 kg/m3	1596.4 m/s
293.15 K, m1 = 0.998	1080.93 kg/m3	1596.5 m/s
298.15 K, m1 = 0.0059	997.633 kg/m3	1497.7 m/s
298.15 K, m1 = 0.0071	997.747 kg/m3	1497.9 m/s
298.15 K, m1 = 0.0087	997.913 kg/m3	1498.1 m/s
298.15 K, m1 = 0.0129	998.325 kg/m3	1498.7 m/s
298.15 K, m1 = 0.0177	998.796 kg/m3	1499.3 m/s
298.15 K, m1 = 0.0222	999.256 kg/m3	1499.9 m/s
298.15 K, m1 = 0.0266	999.681 kg/m3	1500.3 m/s
298.15 K, m1 = 0.0311	1000.12 kg/m3	1501 m/s
298.15 K, m1 = 0.0354	1000.55 kg/m3	1501.5 m/s
298.15 K, m1 = 0.0423	1001.23 kg/m3	1502.4 m/s
298.15 K, m1 = 0.0446	1001.46 kg/m3	1502.7 m/s
298.15 K, m1 = 0.0468	1001.67 kg/m3	1503 m/s
298.15 K, m1 = 0.0492	1001.92 kg/m3	1503.3 m/s
298.15 K, m1 = 0.0562	1002.56 kg/m3	1504.1 m/s
298.15 K, m1 = 0.0645	1003.38 kg/m3	1505.2 m/s
298.15 K, m1 = 0.0748	1004.34 kg/m3	1506.4 m/s
298.15 K, m1 = 0.0797	1004.83 kg/m3	1507 m/s
298.15 K, m1 = 0.09	1005.81 kg/m3	1508.2 m/s
298.15 K, m1 = 0.5	1041.8 kg/m3 and 1041.8 kg/m3 and 1041.76 kg/m3	1554.8 m/s and 1554.6 m/s and 1554.6 m/s
298.15 K, m1 = 0.988	1079.09 kg/m3	1606.5 m/s
298.15 K, m1 = 0.997	1079.04 kg/m3	1606.4 m/s
298.15 K, m1 = 0.998	1079.09 kg/m3	1606.5 m/s
303.15 K, m1 = 0.0059	996.228 kg/m3	1510.1 m/s
303.15 K, m1 = 0.0071	996.341 kg/m3	1510.3 m/s
303.15 K, m1 = 0.0087	996.506 kg/m3	1510.5 m/s
303.15 K, m1 = 0.0129	996.916 kg/m3	1511 m/s
303.15 K, m1 = 0.0177	997.381 kg/m3	1511.6 m/s
303.15 K, m1 = 0.0222	997.837 kg/m3	1512.2 m/s
303.15 K, m1 = 0.0266	998.259 kg/m3	1512.6 m/s
303.15 K, m1 = 0.0311	998.698 kg/m3	1513.2 m/s
303.15 K, m1 = 0.0354	999.119 kg/m3	1513.8 m/s
303.15 K, m1 = 0.0423	999.789 kg/m3	1514.6 m/s
303.15 K, m1 = 0.0446	1000.02 kg/m3	1514.9 m/s
303.15 K, m1 = 0.0468	1000.23 kg/m3	1515.1 m/s
303.15 K, m1 = 0.0492	1000.48 kg/m3	1515.4 m/s
303.15 K, m1 = 0.0562	1001.11 kg/m3	1516.2 m/s
303.15 K, m1 = 0.0645	1001.92 kg/m3	1517.2 m/s
303.15 K, m1 = 0.0748	1002.88 kg/m3	1518.4 m/s
303.15 K, m1 = 0.0797	1003.36 kg/m3	1519 m/s
303.15 K, m1 = 0.09	1004.34 kg/m3	1520.2 m/s
303.15 K, m1 = 0.5	1040.04 kg/m3 and 1040.04 kg/m3 and 1040 kg/m3	1565.1 m/s and 1564.9 m/s and 1564.9 m/s
303.15 K, m1 = 0.988	1077.11 kg/m3	1615 m/s
303.15 K, m1 = 0.997	1077.07 kg/m3	1614.9 m/s
303.15 K, m1 = 0.998	1077.11 kg/m3	1615 m/s
308.15 K, m1 = 0.0059	994.605 kg/m3	1520.8 m/s
308.15 K, m1 = 0.0071	994.721 kg/m3	1520.9 m/s
308.15 K, m1 = 0.0087	994.88 kg/m3	1521.1 m/s
308.15 K, m1 = 0.0129	995.288 kg/m3	1521.6 m/s
308.15 K, m1 = 0.0177	995.753 kg/m3	1522.2 m/s
308.15 K, m1 = 0.0222	996.203 kg/m3	1522.8 m/s
308.15 K, m1 = 0.0266	996.623 kg/m3	1523.2 m/s
308.15 K, m1 = 0.0311	997.058 kg/m3	1523.8 m/s
308.15 K, m1 = 0.0354	997.475 kg/m3	1524.3 m/s
308.15 K, m1 = 0.0423	998.143 kg/m3	1525.1 m/s
308.15 K, m1 = 0.0446	998.37 kg/m3	1525.4 m/s
308.15 K, m1 = 0.0468	998.58 kg/m3	1525.6 m/s
308.15 K, m1 = 0.0492	998.825 kg/m3	1525.9 m/s
308.15 K, m1 = 0.0562	999.453 kg/m3	1526.7 m/s
308.15 K, m1 = 0.0645	1000.26 kg/m3	1527.7 m/s
308.15 K, m1 = 0.0748	1001.21 kg/m3	1528.8 m/s
308.15 K, m1 = 0.0797	1001.68 kg/m3	1529.4 m/s
308.15 K, m1 = 0.09	1002.65 kg/m3	1530.5 m/s
308.15 K, m1 = 0.5	1038.13 kg/m3 and 1038.12 kg/m3 and 1038.08 kg/m3	1573.9 m/s and 1573.7 m/s and 1573.7 m/s
308.15 K, m1 = 0.988	1075.01 kg/m3	1622.1 m/s
308.15 K, m1 = 0.997	1074.96 kg/m3	1622 m/s
308.15 K, m1 = 0.998	1075.01 kg/m3	1622.1 m/s
313.15 K, m1 = 0.0059	992.787 kg/m3	1529.8 m/s
313.15 K, m1 = 0.0071	992.9 kg/m3	1530 m/s
313.15 K, m1 = 0.0087	993.06 kg/m3	1530.2 m/s
313.15 K, m1 = 0.0129	993.463 kg/m3	1530.7 m/s
313.15 K, m1 = 0.0177	993.924 kg/m3	1531.3 m/s
313.15 K, m1 = 0.0222	994.373 kg/m3	1531.8 m/s
313.15 K, m1 = 0.0266	994.79 kg/m3	1532.2 m/s
313.15 K, m1 = 0.0311	995.224 kg/m3	1532.8 m/s
313.15 K, m1 = 0.0354	995.638 kg/m3	1533.3 m/s
313.15 K, m1 = 0.0423	996.299 kg/m3	1534.1 m/s
313.15 K, m1 = 0.0446	996.527 kg/m3	1534.3 m/s
313.15 K, m1 = 0.0468	996.735 kg/m3	1534.6 m/s
313.15 K, m1 = 0.0492	996.978 kg/m3	1534.8 m/s
313.15 K, m1 = 0.0562	997.604 kg/m3	1535.6 m/s
313.15 K, m1 = 0.0645	998.406 kg/m3	1536.6 m/s
313.15 K, m1 = 0.0748	999.345 kg/m3	1537.7 m/s
313.15 K, m1 = 0.0797	999.818 kg/m3	1538.2 m/s
313.15 K, m1 = 0.09	1000.78 kg/m3	1539.3 m/s
313.15 K, m1 = 0.5	1036.06 kg/m3 and 1036.02 kg/m3	1581.2 m/s and 1581 m/s and 1581 m/s
313.15 K, m1 = 0.988	1072.78 kg/m3	1628 m/s
313.15 K, m1 = 0.997	1072.73 kg/m3	1627.9 m/s
313.15 K, m1 = 0.998	1072.78 kg/m3	1628 m/s

O [water] + N.N.O=C(O)CC(O)(CC(=O)O)C(=O)O
Details	mass density [kg/m3]
283.15 K, m2 = 0	999.699

O [water] + NCC(=O)O
Details	mass density [kg/m3]
283.15 K, m2 = 0	999.699

O [water] + N[C@@H](CO)C(=O)O
Details	mass density [kg/m3]
283.15 K, m2 = 0	999.699
